Source: patent US20240158348A1, “HERBICIDAL CYCLIC AMIDES N-SUBSTITUTED WITH A HALOALKYLSULFONYLANILIDE GROUP” (FMC Corporation, priority 2021, published 2024)

How the values were obtained:
Type in all cases: in vivo
[1] = tested on: soybean (Glycine max); test: Test C postemergence, soybean
[2] = tested on: kochia (Bassia scoparia); test: Test C preemergence, kochia; conditions: 0 is no effect, 100 is complete control
In short: (§1)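 Plants grown in a sand and loam soil blend received the formulated test chemicals either as a preemergence soil-directed spray or postemergence at 2 to 10 cm height. After 10 or 12 greenhouse days, injury was assessed visually, with 100 meaning complete control.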

[3] = tested on: corn (Zea mays); test: Test C postemergence, corn
[4] = tested on: ryegrass, Italian (Italian ryegrass, Lolium multiflorum); test: Test C postemergence, Italian ryegrass
In short: as §1

[5] = tested on: kochia (Bassia scoparia); test: Test C postemergence, kochia
In short: as §1

[6] = tested on: blackgrass (Alopecurus myosuroides); test: Test C postemergence, blackgrass; conditions: 31 g ai/ha Postemergence; visual injury, 0 to 100 scale (0 no effect, 100 complete control)
In short: as §1

[7] = tested on: goosegrass (Eleusine indica); test: Test C preemergence, goosegrass; conditions: 0 is no effect, 100 is complete control
In short: as §1

[8] = tested on: pigweed, palmer (palmer amaranth, Amaranthus palmeri); test: Test C preemergence, palmer amaranth; conditions: 0 is no effect, 100 is complete control
In short: as §1

[9] = tested on: soybean (Glycine max); test: Test C preemergence, soybean; conditions: 0 is no effect, 100 is complete control
In short: as §1

[10] = tested on: wheat (Triticum aestivum); test: Test C postemergence, wheat
In short: as §1

[11] = tested on: galium (catchweed bedstraw, Galium aparine); test: Test C postemergence, galium
[12] = tested on: ryegrass, Italian (Italian ryegrass, Lolium multiflorum); test: Test C preemergence, Italian ryegrass; conditions: 0 is no effect, 100 is complete control
In short: as §1

[13] = tested on: blackgrass (Alopecurus myosuroides); test: Test C preemergence, blackgrass; conditions: 0 is no effect, 100 is complete control
In short: as §1

[14] = tested on: sedge, umbrella (small-flower umbrella sedge, Cyperus difformis); test: Test D flooded paddy test, umbrella sedge; design: key: 0 = no effect, 100 = complete control; conditions: 250 g ai/ha, Flood; applied to paddy water at 2-leaf stage; visual rating after 13 days; scale 0 (no effect) to 100 (complete control)
In short: (§2)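 Visual response scores run 0 (no effect) to 100 (complete control), judged against controls 13 days after treatment. Compounds were added to paddy water 3 cm deep over soil, around plants at the 2-leaf stage kept in a greenhouse.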

[15] = tested on: foxtail, giant (giant foxtail, Setaria faberi); test: Test C postemergence, giant foxtail
[16] = tested on: ragweed (common ragweed, Ambrosia artemisiifolia); test: Test C postemergence, ragweed
In short: as §1

[17] = tested on: blackgrass (Alopecurus myosuroides); test: Test C postemergence, blackgrass; conditions: 125 g ai/ha Postemergence; 0 is no effect, 100 is complete control
[18] = tested on: corn (Zea mays); test: Test C preemergence, corn; conditions: 0 is no effect, 100 is complete control
In short: as §1

[19] = tested on: foxtail, giant (giant foxtail, Setaria faberi); test: Test C preemergence, giant foxtail; conditions: 0 is no effect, 100 is complete control
In short: as §1

[20] = tested on: rice (Oryza sativa); test: Test D flooded paddy test, rice; design: key: 0 = no effect, 100 = complete control; conditions: 250 g ai/ha, Flood; applied to paddy water at 2-leaf stage; visual rating after 13 days; scale 0 (no effect) to 100 (complete control)
In short: as §2

[21] = tested on: pigweed, palmer (palmer amaranth, Amaranthus palmeri); test: Test C postemergence, palmer amaranth
In short: as §1

[22] = tested on: ragweed (common ragweed, Ambrosia artemisiifolia); test: Test C preemergence, ragweed; conditions: 0 is no effect, 100 is complete control
In short: as §1

[23] = tested on: ducksalad (Heteranthera limosa); test: Test D flooded paddy test, ducksalad; design: key: 0 = no effect, 100 = complete control; conditions: 250 g ai/ha, Flood; applied to paddy water at 2-leaf stage; visual rating after 13 days; scale 0 (no effect) to 100 (complete control)
In short: as §2

[24] = tested on: barnyardgrass (Echinochloa crusgalli); test: Test D flooded paddy test, barnyardgrass; design: key: 0 = no effect, 100 = complete control; conditions: 250 g ai/ha, Flood; applied to paddy water at 2-leaf stage; visual rating after 13 days; scale 0 (no effect) to 100 (complete control)
In short: as §2

[25] = tested on: wheat (Triticum aestivum); test: Test C preemergence, wheat; conditions: 0 is no effect, 100 is complete control
[26] = tested on: oat, wild (wild oat, Avena fatua); test: Test C preemergence, wild oat; conditions: 0 is no effect, 100 is complete control
In short: as §1

[27] = tested on: oat, wild (wild oat, Avena fatua); test: Test C postemergence, wild oat
[28] = tested on: goosegrass (Eleusine indica); test: Test C postemergence, goosegrass
In short: as §1

[29] = tested on: horseweed (Erigeron canadensis); test: Test C postemergence, horseweed
In short: as §1

[30] = 31 g ai/ha Postemergence, visual injury, 0 to 100 scale (0 no effect, 100 complete control)
[31] = 125 g ai/ha Postemergence, 0 is no effect, 100 is complete control

Structure (SMILES): Cc1c(N2CCC(OC3CC3)C2=O)cc(N(COC(=O)C(C)(C)C)S(=O)(=O)C(F)(F)F)c(C)c1F (stereo not shown) [Compound 23]
- Soybean plant response rating [1, 30]: 60
- Plant response rating (0 to 100 scale), Soybean [1, 31]: 60
- Plant response rating (0 to 100 scale), Kochia ([2]; 31 g ai/ha Preemergence): 20
- Plant response rating (0 to 100 scale), Kochia ([2]; 125 g ai/ha Preemergence): 90
- Corn plant response rating [3, 30]: 30
- Plant response rating (0 to 100 scale), Corn [3, 31]: 90
- Ryegrass, Italian plant response rating [4, 30]: 50
- Plant response rating (0 to 100 scale), Ryegrass, Italian [4, 31]: 100
- Kochia plant response rating [5, 30]: 30
- Plant response rating (0 to 100 scale), Kochia [5, 31]: 80
- Blackgrass plant response rating [6]: 10
- Plant response rating (0 to 100 scale), Goosegrass ([7]; 31 g ai/ha Preemergence): 70
- Plant response rating (0 to 100 scale), Goosegrass ([7]; 125 g ai/ha Preemergence): 100
- Plant response rating (0 to 100 scale), Pigweed, Palmer ([8]; 31 g ai/ha Preemergence): 30
- Plant response rating (0 to 100 scale), Pigweed, Palmer ([8]; 125 g ai/ha Preemergence): 100
- Plant response rating (0 to 100 scale), Soybean ([9]; 31 g ai/ha Preemergence): 30
- Plant response rating (0 to 100 scale), Soybean ([9]; 125 g ai/ha Preemergence): 40
- Wheat plant response rating [10, 30]: 10
- Plant response rating (0 to 100 scale), Wheat [10, 31]: 60
- Galium plant response rating [11, 30]: 90
- Plant response rating (0 to 100 scale), Galium [11, 31]: 100
- Plant response rating (0 to 100 scale), Ryegrass, Italian ([12]; 31 g ai/ha Preemergence): 30
- Plant response rating (0 to 100 scale), Ryegrass, Italian ([12]; 125 g ai/ha Preemergence): 100
- Plant response rating (0 to 100 scale), Blackgrass ([13]; 31 g ai/ha Preemergence): 0
- Plant response rating (0 to 100 scale), Blackgrass ([13]; 125 g ai/ha Preemergence): 10
- Plant response rating, Sedge, Umbrella [14]: 95
- Foxtail, Giant plant response rating [15, 30]: 0
- Plant response rating (0 to 100 scale), Foxtail, Giant [15, 31]: 80
- Ragweed plant response rating [16, 30]: 90
- Plant response rating (0 to 100 scale), Ragweed [16, 31]: 90
- Plant response rating (0 to 100 scale), Blackgrass [17]: 50
- Plant response rating (0 to 100 scale), Corn ([18]; 31 g ai/ha Preemergence): 10
- Plant response rating (0 to 100 scale), Corn ([18]; 125 g ai/ha Preemergence): 20
- Plant response rating (0 to 100 scale), Foxtail, Giant ([19]; 31 g ai/ha Preemergence): 20
- Plant response rating (0 to 100 scale), Foxtail, Giant ([19]; 125 g ai/ha Preemergence): 90
- Plant response rating, Rice [20]: 40
- Pigweed, Palmer plant response rating [21, 30]: 50
- Plant response rating (0 to 100 scale), Pigweed, Palmer [21, 31]: 70
- Plant response rating (0 to 100 scale), Ragweed ([22]; 31 g ai/ha Preemergence): 30
- Plant response rating (0 to 100 scale), Ragweed ([22]; 125 g ai/ha Preemergence): 90
- Plant response rating, Ducksalad [23]: 80
- Plant response rating, Barnyardgrass [24]: 95
- Plant response rating (0 to 100 scale), Wheat ([25]; 31 g ai/ha Preemergence): 10
- Plant response rating (0 to 100 scale), Wheat ([25]; 125 g ai/ha Preemergence): 30
- Plant response rating (0 to 100 scale), Oat, Wild ([26]; 31 g ai/ha Preemergence): 40
- Plant response rating (0 to 100 scale), Oat, Wild ([26]; 125 g ai/ha Preemergence): 90
- Oat, Wild plant response rating [27, 30]: 20
- Plant response rating (0 to 100 scale), Oat, Wild [27, 31]: 50
- Goosegrass plant response rating [28, 30]: 30
- Plant response rating (0 to 100 scale), Goosegrass [28, 31]: 90
- Horseweed plant response rating [29, 30]: 80
- Plant response rating (0 to 100 scale), Horseweed [29, 31]: 90
